Results taken from PubChem BioAssay (NCI).
Where “and” joins values, the source holds several entries; their conditions need not be identical. Identical values can stand only once.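 Grown in 96-well plates, cells were treated for 48 hours with each compound at five concentrations. Insufficient inhibition: endpoint recorded as highest concentration tested. Here, GI50 denotes the concentration required for 50% inhibition of growth. TGI is the concentration that stops growth completely.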

Each molecule was assayed on UO-31 renal (assay: NCI-60 cell line screen, 48 h).
`COC(=O)c1cc2c(cc1O)[C@@H](NC(C)=O)CCc1cc(OC)c(OC)c(OC)c1-2` gave a GI50 of 0.0626 µM and a TGI greater than 100 µM. For `CSc1nc2c(nc(C)c(=O)n2C2OCC(OC(C)=O)C(OC(C)=O)C2OC(C)=O)c(=O)[nH]1` (stereo unspecified), the TGI was greater than 100 µM. For `O=S(O)CCCCSSCC(O)C(O)CSSCCCCS(=O)O` (stereo unspecified), the TGI was 67.3 µM and 79.5 µM. `COc1ccc(C2S/C(=C\c3ccccc3O)C(=O)N2NC(=O)Cc2ccccc2)cc1` (stereo unspecified) was tested, and the TGI was greater than 100 µM. With `CC1OC(n2cc(F)c(=O)[nH]c2=O)C=CC1O` (stereo unspecified) the TGI was greater than 100 µM. In the case of `C/C(=C\CCc1ccoc1)CC/C=C(\C)CCCC1=CC(=O)OC1`, the GI50 is reported as 4.35 µM and the TGI is reported as 48.7 µM. For `C=C(C=O)[C@@H]1C2OC(=O)C(=C)[C@@H]2CC(O)[C@@]1(C)CC` (stereo partly specified), the TGI was 45.8 µM. With `C=C(CCCCC)CN1CCCC1[C@@](C)(O)CC(=O)OCC` (stereo partly specified) the TGI was greater than 100 µM. Work on `O=C1c2ccccc2C(=O)C1(Cl)C1(S(=O)(=O)O)c2ccccc2-c2ccccc21` yielded a TGI greater than 100 µM.

What follows are molecules tested on TK-10 renal (assay: NCI-60 cell line screen, 48 h).
`O=C(CCCn1ccnc1[N+](=O)[O-])NCCn1cncc1[N+](=O)[O-]` was tested, and the TGI was greater than 100 µM. `Cn1cc(C2=C(c3ccc4ccccc4c3)C(=O)NC2=O)c2ccccc21` gave a GI50 greater than 25 µM and a TGI greater than 25 µM. `O=C(OCc1ccc2cccc(O)c2n1)N1CCN(C(=O)c2cc3cc(F)ccc3[nH]2)CC1` was tested, and the GI50 was 1.77 µM and the TGI was 3.16 µM. With `C[As](C)SC1OC(CO)C(O)C1O` (stereo unspecified) the GI50 was 0.174 µM and the TGI was 0.816 µM. For `CCCCCCCCCC/C=C/CC(=O)SCCNC(=O)CCNC(=O)[C@@H](O)C(C)(C)COP(=O)(O)OP(=O)(O)OCC1OC(n2cnc3c(N)ncnc32)C(O)C1OP(=O)(O)O` (stereo partly specified), the TGI was greater than 10 µM. `Cn1c(=O)c2c(nc(Nc3cc(=O)[nH]c(=O)[nH]3)n2Cc2ccccc2)n(C)c1=O` showed a GI50 greater than 100 µM and a TGI greater than 100 µM. In the case of `COc1ccc2c(c1)CCC1C2CC[C@@]2(C)C1CC1=CC(COC(C)=O)C3C(=O)c4ccccc4C(=O)C3C12` (stereo partly specified), the GI50 is reported as greater than 100 µM and the TGI is reported as greater than 100 µM. Molecule `C=C(F)C(=O)N1CCN(c2nc(OC[C@@H]3CCCN3C)nc3c2CCN(c2cccc4cccc(Cl)c24)C3)C[C@@H]1CC#N` has a GI50 of 1.1 µM and a TGI of 2.67 µM. `Cc1c2cccnc2c(C)c2c1c1cc(CO)ccc1n2C` was tested, and the GI50 was 2.57 µM and the TGI was 7.77 µM. Work on `CC/C(=C(/c1ccc(OCCN(C)C)cc1)c1ccc(OC(=O)CCCCC(=O)c2c(C)[nH]c(/C=C3\N=C(c4ccc[nH]4)C=C3OC)c2C)cc1)c1ccccc1` yielded a GI50 of 12.8 µM and a TGI of 25.4 µM. For `CC[C@]12C=CCN3CC[C@@]4(c5ccc(OC)cc5N(C)[C@H]4[C@@](O)(C(=O)OC)[C@@H]1OC(=O)CCC[P+](c1ccccc1)(c1ccccc1)c1ccccc1)[C@@H]32`, the GI50 was 1.59 µM and 1.28 µM and the TGI was 6.46 µM and 3.3 µM. `CC(=O)OC1Oc2ccccc2-c2oc(=O)c(-c3cc(=O)oc4cc(O)ccc34)cc21` (stereo unspecified) was tested, and the GI50 was 32.6 µM and the TGI was greater than 100 µM. For `CS(=O)(=O)N/N=C/CN1C(=O)c2ccccc2C1=O`, the TGI was greater than 100 µM. Work on `Ic1ccc(Nc2nc3nonc3nc2Nc2ccc(I)cc2)cc1` yielded a GI50 of 0.321 µM and a TGI greater than 100 µM. With `CC(C)(C)C(=O)OCOP(=O)(OCOC(=O)C(C)(C)C)C1CCCN(O)C1=O` (stereo unspecified) the GI50 was 0.537 µM and the TGI was 8.05 µM. Work on `COC(=O)C1=C(c2ccc3c(c2)OCO3)O[C@H](c2cc(OC)c(OC)c(OC)c2)[C@H]1COC(C)=O` yielded a TGI greater than 100 µM. In the case of `COc1ccc(OC)c(NC(=O)C(=O)NNC(=O)c2sc(NNC(C)=O)nc2C)c1`, the TGI is reported as greater than 100 µM. With `CCCCc1c(OC)cc(O)c2c1C(=O)c1[nH]c(C(=O)O)c(O)c(=O)c1C2=O` the TGI was greater than 100 µM. `O=[N+]([O-])c1nccn1CC(O)c1ccc(F)cc1` (stereo unspecified) was tested, and the TGI was greater than 100 µM. `O=C1c2ccccc2C2(Br)C(=O)c3ccccc3C12` (stereo unspecified) gave a TGI greater than 100 µM. `CCCCOC(=O)C1C(c2ccc(Cl)cc2)NC(c2ccc(Cl)cc2)C(C(=O)OCCCC)S1(=O)=O` (stereo unspecified) gave a TGI greater than 100 µM. Molecule `CCOC(=O)Oc1c(OC)cc(C(=O)NC2CCc3cc(OC)c(OC)c(OC)c3-c3ccc(SC)c(=O)cc32)cc1OC` (stereo unspecified) has a GI50 of 0.163 µM and a TGI greater than 70 µM. Molecule `CC(=O)Nc1ccc(C(=O)NN2C(=O)C(Cl)C2c2ccccc2)cc1` (stereo unspecified) has a TGI greater than 100 µM. For `CSc1nc2c(nc(C)c(=O)n2C2OCC(OC(C)=O)C(OC(C)=O)C2OC(C)=O)c(=O)[nH]1` (stereo unspecified), the TGI was greater than 100 µM. `O=S(O)CCCCSSCC(O)C(O)CSSCCCCS(=O)O` (stereo unspecified) was tested, and the TGI was greater than 100 µM. Molecule `COc1ccc(C2S/C(=C\c3ccccc3O)C(=O)N2NC(=O)Cc2ccccc2)cc1` (stereo unspecified) has a TGI greater than 100 µM. With `CC1OC(n2cc(F)c(=O)[nH]c2=O)C=CC1O` (stereo unspecified) the TGI was greater than 100 µM. `C/C(=C\CCc1ccoc1)CC/C=C(\C)CCCC1=CC(=O)OC1` was tested, and the GI50 was 16.9 µM and the TGI was 63.9 µM. `C=C(C=O)[C@@H]1C2OC(=O)C(=C)[C@@H]2CC(O)[C@@]1(C)CC` (stereo partly specified) gave a TGI of 29.9 µM. Work on `C=C(CCCCC)CN1CCCC1[C@@](C)(O)CC(=O)OCC` (stereo partly specified) yielded a TGI greater than 100 µM. `O=C1c2ccccc2C(=O)C1(Cl)C1(S(=O)(=O)O)c2ccccc2-c2ccccc21` showed a TGI greater than 100 µM.
